Results from the NIST ThermoML archive (doi:10.1016/j.jct.2016.03.021).

Experiment: wn = mass fraction of the nth substance listed
Conditions: Liquid, Vibrating tube method

CN(CCO)CCO [N-methyldiethanolamine] + O
mass density [kg/m3]
Conditions	w1 = 0.1	w1 = 0.2002	w1 = 0.3	w1 = 0.4
373.15 K, 100 kPa	964.4	970.5	976.5	981.9
373.15 K, 500 kPa	964.6	970.7	976.6	982.1
373.15 K, 1000 kPa	964.9	970.9	976.9	982.4
373.15 K, 2000 kPa	965.3	971.4	977.4	982.8
373.15 K, 5000 kPa	966.7	972.8	978.7	984.2
373.15 K, 10000 kPa	969	975	981.1	986.5
373.15 K, 15000 kPa	971.2	977.2	983.4	988.8
373.15 K, 20000 kPa	973.5	979.5	985.6	991.1
373.15 K, 30000 kPa	977.9	983.9	989.8	995.5
373.15 K, 40000 kPa	982.1	988.2	994.1	999.8
373.15 K, 50000 kPa	986.2	992.1	998.1	1003.7
373.15 K, 60000 kPa	990.1	996.1	1002.1	1007.7
373.15 K, 70000 kPa	994.2	1000	1005.9	1011.6
373.15 K, 80000 kPa	998.1	1003.8	1009.8	1015.4
373.15 K, 90000 kPa	1001.8	1007.4	1013.3	1019
373.15 K, 100000 kPa	1005.3	1011.1	1017	1022.6
373.15 K, 110000 kPa	1009	1014.7	1020.5	1026.2
373.15 K, 120000 kPa	1012.6	1018.3	1024	1029.7
373.15 K, 130000 kPa	1016	1021.5	1027.4	1033
373.15 K, 140000 kPa	1019.4	1025	1030.7	1036.3
393.15 K, 100 kPa	948.6	954	959.6	964.2
393.15 K, 500 kPa	949	954.4	959.9	964.7
393.15 K, 1000 kPa	949.2	954.6	960.1	964.8
393.15 K, 2000 kPa	949.6	955.2	960.6	965.4
393.15 K, 5000 kPa	951.1	956.7	962.1	966.9
393.15 K, 10000 kPa	953.6	959.2	964.7	969.5
393.15 K, 15000 kPa	956	961.6	967.1	972
393.15 K, 20000 kPa	958.5	964	969.6	974.5
393.15 K, 30000 kPa	963	968.5	974.2	979.2
393.15 K, 40000 kPa	967.6	973.1	978.7	983.9
393.15 K, 50000 kPa	971.8	977.3	983	988.1
393.15 K, 60000 kPa	976.2	981.7	987.4	992.5
393.15 K, 70000 kPa	980.4	985.9	991.6	996.8
393.15 K, 80000 kPa	984.3	989.8	995.4	1000.8
393.15 K, 90000 kPa	988.3	993.7	999.4	1004.6
393.15 K, 100000 kPa	992.1	997.5	1003.1	1008.5
393.15 K, 110000 kPa	995.9	1001.4	1006.9	1012.3
393.15 K, 120000 kPa	999.6	1005	1010.6	1015.9
393.15 K, 130000 kPa	1003.1	1008.5	1014.1	1019.4
393.15 K, 140000 kPa	1006.7	1012	1017.6	1023
